Converted amounts (≈) assume the structure as drawn. Read-outs that look alike come from different tables or passages of the source.
Assays:
A. baumannii DSM 105126 = test: MIC 50, broth micro-dilution, DSM strains; format: cell-based, Acinetobacter baumannii
Text: (§1) 3.2 Against Selected Bacteria of the ESKAPE Panel and Enterococcus faecalis (DSM Strains)
(§2) Tested reference compounds. Amikacin sulfate (Cat. No. 01693, Chem-Impex), Gentamicin sulfate (Cat. No. G4918, Sigma Aldrich).
(§3) Microbial strains. Enterococcus faecalis DSM 2570, Klebsiella pneumoniae DSM 26371, Acinetobacter baumannii DSM 105126, Enterobacter cloacae 3MRGN (clinical bronchial aspirate isolate).
(§4) Culture media and equipment. BBL™ Mueller Hinton Broth 2 (Lot. BCBW1143, Cat. No. 70192, Sigma); Trypcase Soy Blood-agar plates (Cat. No. 43001, Biomérieux); Cryoinstant (contains 15% glycerol; Cat. No. 822070ZA, VWR International); GasPak™ EZ Standard Incubation Container (Cat. No. 260671, Becton Dickinson); GasPak™ EZ Campy Container System Sachets (Cat. No. 260680, Becton Dickinson); 96-well deep well plate, 1 mL (Cat. No. 0030506.200, Eppendorf); Plate lid (Cat. No. 0030131.525, Eppendorf); 96-well plate, F-bottom (Cat. No. 260860, Nunc); Incubator (Sartorius Certomat BS-1); Laminar flow (Heraeus HS12); UV/VIS meter (Perkin Elmer Lambda Bio+); Platereader (Tecan Infinite M200 Pro).
(§5) Compound preparation. Compounds were prepared in MH2 media at a concentration of 5 mM and stored at 4° C. For testing, solutions of 128 μM were prepared in MH2, for tests against E. faecalis a solution of 512 μM was prepared. Out of these working solutions, 400 μL was transferred to wells in the first column of 96-well deep well plates. Each compound was transferred in triplicate. Plates were previously filled with 200 μL of MH2 media in all wells except for the wells in the first column. After compound and antibiotic addition, the compounds were serial two-fold diluted by transferring 200 μL from the first to the second column, then from the second to the third column and so on. Finally, 200 μL was removed from the last column.
(§6) Inoculum preparation. Microorganisms used were all revived from 15% glycerol storage in Croinstant tubes at −28° C. by plating them on blood agar plates. A. baumanni, and E. cloacae were grown aerobically at 37° C., E. faecalis was grown microaerophilically at 37° C., and K. pneumoniae was grown aerobically at 37° C. Plates were stored at 4° C. for up to two weeks, after which new plates were prepared from −28° C. A single colony was inoculated in MH2 media and grown at 37° C. and 200 rpm to an optical density (measured by UV/Vis spectroscopy) of 0.6-0.8 at 600 nm. Out of these suspensions, actual inoculums were prepared by diluting them to an optical density of 0.1 in MH2 media. From these inoculums, 200 μL was transferred to each well, resulting in a final compound concentration range of 64 μM-31.3 nM for, K. pneumoniae, A. baumanni, and E. cloacae, and 256 μM-125 nM for E. faecalis. Plates inoculated with E. faecalis were placed inside a GasPak™ Container System with GasPak™ Campy Container System sachets. All plates were incubated at 200 rpm for 18 h under the microorganism culturing conditions mentioned above.
(§7) MIC determination. After 18 h of growth, 200 μL was transferred to a 96-well F-bottom plate. The optical density was determined by a plate reader at 600 nm, with 10 s shaking before reading. Triplicate measurements were averaged, and a growth curve was plotted in Excel. The first column in which the growth reached half the value of maximum growth was determined as the MIC50 value for that particular compound.
(§8) MIC50. The MIC50 of a compound was assigned at which the bacterial growth reached half the value of maximum growth.

[1] = tested on: Enterobacter cloacae 3MRGN (clinical bronchial aspirate isolate); test: MIC 50, broth micro-dilution, clinical isolate; format: cell-based; conditions: E. Cloacae clinical isolate
Text: as §1, §2, §3, §4, §5, §6, §7, §8

[2] = Acinetobacter baumannii, DSM105126, read-out: MIC 50
[3] = Enterobacter cloacae, read-out: MIC 50

SMILES | MIC50 (A. baumannii DSM 105126; [2]) | MIC50 [1, 3] | MIC50 (A. baumannii DSM 105126) | MIC50 [1]
N=C(NCC1CC1)NC1[C@@H](O)C(OC2[C@@H](F)[C@H](O[C@H]3OC(CN)[C@@H](O)CC3N)C(N)C[C@H]2NC(=O)[C@@H](O)CCN)O[C@H](CO)[C@H]1O (stereo partly shown) [ABX5027, Tobra-AHB-F-Gua cyclopropylmethyl] | 0.125 µM (≈ 0.0833 µg/mL) | 0.5 µM (≈ 0.333 µg/mL) | – | –
NCC[C@H](O)C(=O)N[C@@H]1CC(N)[C@@H](O[C@H]2OC(CN)[C@@H](O)[C@@H](O)C2N)[C@H](O)C1OC1O[C@H](CO)[C@@H](O)C(N)[C@H]1O (stereo partly drawn) [ABX4002, 3′Epi-KanaB-AHB] | – | – | 0.5 µM (≈ 0.292 µg/mL) | 4 µM (≈ 2.34 µg/mL)
N=C(NCCCN)NC1[C@@H](O)C(OC2[C@@H](F)[C@H](O[C@H]3OC(CN)[C@@H](O)CC3N)C(N)C[C@H]2NC(=O)[C@@H](O)CCN)O[C@H](CO)[C@H]1O (stereo partly shown) [ABX5030, Tobra-AHB-F-Gua-3-amino-propyl] | 0.0312 to 0.0625 µM (≈ 0.0209 to 0.0419 µg/mL) | 1 µM (≈ 0.67 µg/mL) | – | –
NCC[C@H](O)C(=O)N[C@@H]1CC(N)[C@@H](O[C@H]2OC(CN)[C@@H](O)CC2N)[C@H](O)C1OC1O[C@H](CO)[C@@H](O)C(N)[C@H]1O (stereo partly shown) [ABX5004, Tobra-AHB] | – | – | 0.5 µM (≈ 0.284 µg/mL) | 1 µM (≈ 0.569 µg/mL)
C[C@@H](N)CCNC(=N)NC1[C@@H](O)C(OC2[C@@H](F)[C@H](O[C@H]3OC(CN)[C@@H](O)CC3N)C(N)C[C@H]2NC(=O)[C@@H](O)CCN)O[C@H](CO)[C@H]1O (stereo partly drawn) [ABX5047, Tobra-AHB-F-Gua (R) 3-amino-butyl] | 0.125 µM (≈ 0.0855 µg/mL) | 0.25 to 0.5 µM (≈ 0.171 to 0.342 µg/mL) | – | –
NCC[C@H](O)C(=O)N[C@@H]1CC(N)[C@@H](O[C@H]2OC(CN)[C@@H](O)[C@@H](O)C2N)[C@H](F)C1OC1O[C@H](CO)[C@@H](O)C(N)[C@H]1O (stereo partly drawn) [ABX4003, 3′Epi-KanaB-AHB-F] | – | – | 0.5 µM (≈ 0.293 µg/mL) | 4 µM (≈ 2.35 µg/mL)
CC(C)(C)CCNC(=N)NC1[C@@H](O)C(OC2[C@@H](F)[C@H](O[C@H]3OC(CN)[C@@H](O)CC3N)C(N)C[C@H]2NC(=O)[C@@H](O)CCN)O[C@H](CO)[C@H]1O (stereo partly shown) [ABX5025, Tobra-AHB-F-Gua 2-tBu-ethyl] | 0.25 µM (≈ 0.174 µg/mL) | 0.5 to 1 µM (≈ 0.348 to 0.697 µg/mL) | – | –
N=C(N)N[C@@H]1[C@@H](O)[C@@H](O[C@@H]2[C@@H](O)[C@H](O[C@H]3O[C@H](CN)[C@@H](O)[C@@H](O)[C@H]3N)[C@@H](N)C[C@H]2NC(=O)[C@@H](O)CCN)O[C@H](CO)[C@H]1O [ABX4005, 3′Epi-KanaB-AHB-Gua] | – | – | 0.5 µM (≈ 0.313 µg/mL) | 4 to 8 µM
CNCCNC(=N)NC1[C@@H](O)C(OC2[C@@H](F)[C@H](O[C@H]3OC(CN)[C@@H](O)CC3N)C(N)C[C@H]2NC(=O)[C@@H](O)CCN)O[C@H](CO)[C@H]1O (stereo partly shown) [ABX5038, Tobra-AHB-F-Gua 2-(methylamino)ethyl] | 0.0625 to 0.125 µM (≈ 0.0419 to 0.0837 µg/mL) | 0.5 µM (≈ 0.335 µg/mL) | – | –
N=C(NC[C@@H]1CCCN1)NC1[C@@H](O)C(OC2[C@@H](F)[C@H](O[C@H]3OC(CN)[C@@H](O)CC3N)C(N)C[C@H]2NC(=O)[C@@H](O)CCN)O[C@H](CO)[C@H]1O (stereo partly drawn) [ABX5026, Tobra-AHB-F-Gua (S) pyrrolidine-2-yl-methyl] | 0.0312 to 0.0625 µM (≈ 0.0217 to 0.0435 µg/mL) | 0.25 µM (≈ 0.174 µg/mL) | – | –
N=C(N)NC1[C@@H](O)C(OC2[C@@H](F)[C@H](O[C@H]3OC(CN)[C@@H](O)[C@H](O)C3N)C(N)C[C@H]2NC(=O)[C@@H](O)CCN)O[C@H](CO)[C@H]1O (stereo partly shown) [ABX4006, KanaB-AHB-F-Gua] | 0.125 µM (≈ 0.0786 µg/mL) | – | – | 0.25 to 0.5 µM
NCCC(O)C(=O)NC1CC(N)C(OC2OC(CN)C(O)C(O)C2N)C(F)C1OC1OC(CO)C(O)C(N)C1O (stereo not shown) [ABX4007, KanaB-AHB-F] | – | – | 0.5 µM (≈ 0.293 µg/mL) | 1 to 2 µM
N=C(N)NC1[C@@H](O)C(OC2[C@@H](F)[C@H](O[C@H]3OC(CNCCO)[C@@H](O)CC3N)C(N)C[C@H]2NC(=O)[C@@H](O)CCN)O[C@H](CO)[C@H]1O (stereo partly shown) [ABX5045, 6N-2-hydroxy-ethyl-Tobra-AHB-F-Gua] | 0.5 µM (≈ 0.328 µg/mL) | 1 µM (≈ 0.657 µg/mL) | – | –
N=C(NCCO)NC1[C@@H](O)C(OC2[C@@H](F)[C@H](O[C@H]3OC(CN)[C@@H](O)CC3N)C(N)C[C@H]2NC(=O)[C@@H](O)CCN)O[C@H](CO)[C@H]1O (stereo partly shown) [ABX5029, Tobra-AHB-F-Gua 2-hydroxy-ethyl] | 0.0625 µM (≈ 0.041 µg/mL) | 1 µM (≈ 0.657 µg/mL) | – | –
